≈ marks a conversion by molar mass, not a printed value.
Legend:
[1] = system: Human immunodeficiency virus 1; assay: Antiviral activity against Human immunodeficiency virus 1 IIIB infected human MT4 cells assessed as inhibition of virus-induced cytopathic effect after 4 days by MTT assay; format: functional, organism-based; settings: MT4, 96 h
[2] = system: Staphylococcus aureus; assay: Antimicrobial activity against Staphylococcus aureus after 24 hr by serial dilution method; format: functional
[3] = Cytotoxicity against HEL assessed as minimum concentration required to cause morphological changes; format: cell-based; settings: human, HEL cells
[4] = system: Human betaherpesvirus 5; assay: Antiviral activity against Human herpesvirus 5 strain AD169 infected human HEL cells assessed as reduction in the virus plaque formation; format: functional, organism-based; settings: Human betaherpesvirus 5, AD169, HEL
[5] = Cytotoxicity against HEL; format: cell-based; settings: human, HEL cells
[6] = system: Human betaherpesvirus 5; assay: Antiviral activity against Human herpesvirus 5 Davis infected human HEL cells assessed as reduction in the virus plaque formation; format: functional, organism-based; settings: Human betaherpesvirus 5, Davis
[7] = system: Human immunodeficiency virus 2; assay: Antiviral activity against Human immunodeficiency virus type 2 (ISOLATE ROD) infected human MT4 cells assessed as inhibition of virus-induced cytopathic effect after 4 days by MTT assay; format: functional, organism-based; settings: Human immunodeficiency virus 2, ISOLATE ROD, MT4, 96 h
[8] = system: Human alphaherpesvirus 3; assay: Antiviral activity against thymidine kinase-positive Human herpesvirus 3 infected in HEL cells assessed as inhibition of viral plaque formation; format: functional, organism-based; settings: Human alphaherpesvirus 3, HEL
[9] = Octanol-water partition coefficient, log P of the compound; format: physicochemical
[10] = system: Aspergillus niger; assay: Antimicrobial activity against Aspergillus niger after 7 days by serial dilution method; format: functional
[11] = system: Candida albicans; assay: Antimicrobial activity against Candida albicans after 2 days by serial dilution method; format: functional
[12] = system: Bacillus subtilis; assay: Antimicrobial activity against Bacillus subtilis after 24 hr by serial dilution method; format: functional
[13] = system: Human alphaherpesvirus 3; assay: Antiviral activity against thymidine kinase-deficient Human herpesvirus 3 infected in HEL cells assessed as inhibition of viral plaque formation; format: functional, organism-based; settings: Human alphaherpesvirus 3, HEL
[14] = Cytotoxicity against Homo sapiens (human) MT4 cells after 4 days by MTT assay; format: cell-based
[15] = system: Escherichia coli; assay: Antimicrobial activity against Escherichia coli after 24 hr by serial dilution method; format: functional

Structure (SMILES) | EC50 [1] [µg/mL] | -logMIC [2] | MCC [3] [µg/mL] | EC50 [4] [µg/mL] | CC50 [5] [µg/mL] | EC50 [6] [µg/mL] | EC50 [7] [µg/mL] | EC50 [8] [µg/mL] | logP [9] | -logMIC [10] | -logMIC [11] | -logMIC [12] | EC50 [13] [µg/mL] | CC50 at 96 h [14] [µg/mL] | -logMIC [15]
O=C(COc1cccc2ccccc12)N/N=C/c1ccc(Br)cc1 | > 106 | 0.58 | > 100 | > 100 | 100 (≈ 261 µM) | > 100 | > 106 | > 100 | 4.81 | 0.58 | 0.58 | 0.58 | > 100 | 106 (≈ 278 µM) | 0.58
O=C(COc1cccc2ccccc12)N/N=C/c1ccccc1Br | > 11.4 | 1.19 | ≥ 20 | > 4 | 100 (≈ 261 µM) | > 20 | > 11.4 | > 4 | 4.81 | 0.88 | 0.88 | 0.88 | > 4 | 11.4 (≈ 29.8 µM) | 0.88
CSc1ccc(/C=N/NC(=O)COc2cccc3ccccc23)cc1 | > 68.3 | 0.85 | ≥ 100 | > 20 | > 100 | > 20 | > 68.3 | > 20 | 4.11 | 0.54 | 1.45 | 0.85 | > 20 | 68.3 (≈ 195 µM) | 0.85
CCOc1ccc(/C=N/NC(=O)COc2cccc3ccccc23)cc1O | > 6.23 | 1.16 | 100 | > 20 | 18.1 (≈ 49.7 µM) | > 20 | > 6.23 | > 4 | 3.82 | 1.46 | 1.46 | 1.46 | > 4 | 6.23 (≈ 17.1 µM) | 1.46
O=C(COc1cccc2ccccc12)N/N=C/c1ccc([N+](=O)[O-])cc1 | > 87.8 | 0.84 | 20 | > 4 | 14.2 (≈ 40.6 µM) | > 4 | > 87.8 | > 4 | 3.97 | 0.54 | 1.45 | 1.14 | > 4 | 87.8 (≈ 251 µM) | 0.84
Nc1nc2c(ncn2COC(CO)CO)c(=O)[nH]1 [GANCICLOVIR] |  |  | > 100 | 2.68 (≈ 10.5 µM) | 60.5 (≈ 237 µM) | 1.79 (≈ 7.01 µM) |  |  |  |  |  |  |  |  | 
O=C(COc1cccc2ccccc12)N/N=C/c1ccccc1 | > 96.6 | 0.78 | 100 | > 20 | 64.5 (≈ 212 µM) | > 20 | > 96.6 | > 20 | 4.02 | 0.78 | 0.78 | 0.78 | > 20 | ≥ 96.6 | 0.78
Cc1ccnc2c1NC(=O)c1cccnc1N2C1CC1 [NEVIRAPINE] |  |  |  |  |  |  | > 4 |  |  |  |  |  |  | > 4 | 
C/C(=N\NC(=O)COc1cccc2ccccc12)c1ccc(C#N)cc1Br | > 12.1 | 1.23 | 20 | > 4 | 12.7 (≈ 30.1 µM) | > 4 | > 12.1 | > 4 | 3.61 | 1.53 | 2.13 | 1.23 | > 4 | 12.1 (≈ 28.7 µM) | 1.53
O=c1[nH]c(=O)n([C@H]2C[C@H](O)[C@@H](CO)O2)cc1/C=C/Br [BRIVUDINE] |  |  | > 100 |  | 173 (≈ 519 µM) |  |  | 0.0093 (≈ 0.0279 µM) |  |  |  |  | 20 (≈ 60 µM) |  | 
C/C(=N\NC(=O)COc1cccc2ccccc12)c1ccc(O)cc1O | > 59.9 | 1.15 | > 100 | > 100 | 74.8 (≈ 213 µM) | > 100 | > 59.9 | 58.5 (≈ 167 µM) | 4.31 | 1.45 | 1.45 | 1.15 | > 100 | 59.9 (≈ 171 µM) | 1.75
C/C(=N\NC(=O)COc1cccc2ccccc12)c1ccc(Cl)cc1 | > 4.07 | 1.45 | ≥ 4 | > 0.8 | 7.1 (≈ 20.1 µM) | 4 (≈ 11.3 µM) | > 4.07 | 2.5 (≈ 7.09 µM) | 4.17 | 0.85 | 1.75 | 1.15 | 3.24 (≈ 9.18 µM) | 4.07 (≈ 11.5 µM) | 1.15
O=C(COc1cccc2ccccc12)N/N=C/c1cccc(Br)c1 | > 87.4 | 1.79 | 100 | > 20 | 48.6 (≈ 127 µM) | > 20 | > 87.4 | > 20 | 4.81 | 0.58 | 0.58 | 0.58 | > 20 | 87.4 (≈ 228 µM) | 0.58
O=C(COc1cccc2ccccc12)N/N=C/c1ccccc1Cl | > 56.2 | 1.13 | 100 | > 20 | 62.7 (≈ 185 µM) | > 20 | > 56.2 | > 20 | 4.54 | 0.83 | 0.83 | 0.83 | > 20 | 56.2 (≈ 166 µM) | 0.83
NNC(=O)COc1ccc2ccccc2c1 [2-NAPHTHOXY ACETIC ACID HYDRAZIDE] |  | 0.94 |  |  |  |  |  |  |  | 0.64 | 0.64 | 0.64 |  |  | 0.94
Nc1nc2c(ncn2COCCO)c(=O)[nH]1 [ACYCLOVIR] |  |  | > 100 |  | 120 (≈ 533 µM) |  |  | 0.44 (≈ 1.95 µM) |  |  |  |  | 23 (≈ 102 µM) |  | 
Cc1cn([C@H]2C[C@H](N=[N+]=[N-])[C@@H](CO)O2)c(=O)[nH]c1=O [ZIDOVUDINE] | 0.002 (≈ 0.00748 µM) |  |  |  |  |  |  |  |  |  |  |  |  | > 25 | 
Nc1ccn(C[C@@H](CO)OCP(=O)(O)O)c(=O)n1.O.O [CIDOFOVIR] |  |  | > 100 | 0.8 | 35.4 | 0.3 |  |  |  |  |  |  |  |  | 
OC(Cn1cncn1)(Cn1cncn1)c1ccc(F)cc1F [FLUCONAZOLE] |  |  |  |  |  |  |  |  |  | 2.64 | 2.64 |  |  |  | 
CCn1cc(C(=O)O)c(=O)c2cc(F)c(N3CCNCC3)cc21 [NORFLOXACIN] |  | 2.61 |  |  |  |  |  |  |  |  |  | 2.61 |  |  | 2.61

From ChEMBL document CHEMBL3045401, “(Naphthalen-1-yloxy)-acetic acid benzylidene/(1-phenyl-ethylidene)-hydrazide derivatives: synthesis, antimicrobial evaluation, and QSAR studies” (Med Chem Res, 2012)
